Non-standard residues stand in square brackets, D forms with d. Residues, ends and D or L forms follow the SMILES beside them. *: point of attachment. C16 diacid = O=C(O)CCCCCCCCCCCCCCC(=O)*; Aib = CC(C)(N)C(=O)O
Columns and labels:
human GIP receptor = molecular target: T1, human GIP receptor (Homo sapiens, UniProt P48546); assay: cAMP assay Alternative 1 (CisBio assay), GIPR antagonism; format: cell-based; details: for cAMP antagonism % inhib: Table 2B, % inhibition of Emax
T1 construct: host or cells: HEK-293 cells, transient transfection (Lipofectamine 2000), cDNA in pCMV-Script vector
T1 sequence (P48546 22-466): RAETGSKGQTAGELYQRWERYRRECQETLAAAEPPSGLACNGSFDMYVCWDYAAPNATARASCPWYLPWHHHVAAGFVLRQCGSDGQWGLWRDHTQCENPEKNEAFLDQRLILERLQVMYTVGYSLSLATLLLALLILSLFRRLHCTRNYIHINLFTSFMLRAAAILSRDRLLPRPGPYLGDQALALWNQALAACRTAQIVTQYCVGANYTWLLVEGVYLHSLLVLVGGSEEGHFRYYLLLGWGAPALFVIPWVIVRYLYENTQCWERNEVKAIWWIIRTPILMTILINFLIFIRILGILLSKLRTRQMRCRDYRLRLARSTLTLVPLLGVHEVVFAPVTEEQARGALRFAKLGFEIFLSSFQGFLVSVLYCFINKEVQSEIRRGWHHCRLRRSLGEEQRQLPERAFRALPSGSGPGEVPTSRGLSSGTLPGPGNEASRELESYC
Procedure: HEK293 cells were cultured in 10% CO2 and 37° C. in Dulbecco's modified Eagle's medium supplemented with 10% fetal bovine serum, 2 mM glutamine, 180 units/ml penicillin, and 45 µg/ml streptomycin. Transient transfection with hGIPR for the CisBio assay from Table 2C was performed by using Lipofectamine 2000.
The in vitro functional activity of compounds towards human GIP receptor can also be determined in HEK-293 cells transiently expressing the receptor. On the day of the assay, cells were resuspended in HBSS buffer (Gibco, 14025-50) supplemented with […] (Gibco, 15630-106), 0.1% Pluronic F-68 (Gibco, 24040-032) and 0.1% casein (Sigma, C4765), and plated in 384-well plates at a density of 5000 cells/well. The GIP peptide analogues of the present disclosure were diluted in HBSS buffer supplemented with 20 mM HEPES, 0.1% pluronic, 0.1% casein and 500 uM IBMX. […] The resulting decrease in intracellular cAMP was quantitatively determined using the CisBio cAMP Dynamic 2 HTRF Assay Kit. The assay is based on a competition between native cAMP produced by cells and cAMP labeled with the dye d2 for binding to a cryptate labeled antibody. The specific signal (i.e. energy transfer signal) is inversely proportional to the concentration of cAMP in the sample.
The cAMP-d2 conjugate and the antibody anti-cAMP-Cryptate, both diluted in lysis buffer provided in the kit, were added to the cells according to the manufacturer's protocol. The resulting competitive assay was incubated for 60 minutes at room temperature, and the signal was detected by using a PerkinElmer Envision® instrument with excitation at 320 nm and emission at 665 nm and 620 nm. The HTRF ratio (emission at 665 nm/620 nm*10,000) is inversely proportional to the amount of cAMP present and is converted to nM cAMP per well using a cAMP standard curve. The dose-response curves were fitted using the non-linear regression analysis (four-logistic parameter equation) in GraphPad Prism, whereby pIC50 values were estimated. To test for agonistic properties at the GIP receptor, compounds were diluted and added to cells as described above and incubated for 30 min at 37° C. The resulting increase in intracellular cAMP was determined using the CisBio cAMP Dynamic 2 HTRF Assay Kit as described above.
The dose-response curves were fitted using the non-linear regression analysis (four-logistic parameter equation) in GraphPad Prism, whereby pIC50 values were estimated.

[1] = Physical stability: fibril formation in Thioflavin T (ThT) assay with agitation; format: physicochemical; details: 25° C., agitation
Procedure, shortened: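 Read-out is continuous ThT fluorescence at 486 nm, with lag time taken where signal reaches 10% between pre- and post-transition baselines. Filtered samples (1, 5, 7.5 or 15 mg/ml; pH 7.4 phosphate buffer or NaOH-adjusted water) were stressed at 25° C. by orbital rotation at 300 rpm with one silica bead per well.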

[2] = Solubility by visual inspection of peptide solutions; format: physicochemical
Procedure, shortened: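 Solubility scored by eye: clear, colorless appearance after gentle mixing. Samples prepared at 1, 5, 7.5 or 15 mg/ml in either pH 7.4 water (NaOH-adjusted) or 50 mM sodium phosphate buffer, pH 7.4.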

SMILES: CC[C@H](C)[C@H](NC(=O)[C@H](CO)NC(=O)[C@H](Cc1ccc(O)cc1)NC(=O)[C@H](CC(=O)O)NC(=O)[C@H](CO)NC(=O)[C@@H](NC(=O)[C@H](Cc1ccccc1)NC(=O)[C@@H](NC(=O)CNC(=O)[C@@H](N)CCC(=O)O)[C@@H](C)O)[C@@H](C)CC)C(=O)N[C@@H](C)C(=O)N[C@@H](CCSC)C(=O)N[C@@H](CC(=O)O)C(=O)N[C@@H](CCCCN)C(=O)N[C@H](C(=O)N[C@@H](CCCCNC(=O)CCCCCCCCCCCCCCC(=O)O)C(=O)N[C@@H](CCC(N)=O)C(=O)N[C@@H](CCC(N)=O)C(=O)N[C@@H](CC(=O)O)C(=O)N[C@@H](Cc1ccccc1)C(=O)N[C@H](C(=O)N[C@@H](CC(N)=O)C(=O)N[C@@H](Cc1c[nH]c2ccccc12)C(=O)N[C@@H](CC(C)C)C(=O)N[C@@H](CC(C)C)C(=O)N[C@@H](C)C(=O)N[C@@H](CCC(N)=O)C(=O)N[C@@H](CCCCN)C(N)=O)C(C)C)[C@@H](C)CC [AT158, reference compound] (H-EGTFISDYSIAMDKIK(C16 diacid)QQDFVNWLLAQK-NH2; N-terminus assumed)
- cAMP antagonism pIC50 (human GIP receptor; Table 2A, HEK-293 cells transiently expressing hGIPR, agonist GIP1-42 at EC50): 7.8
- Avr lag time ([1]; 1 mg/ml, TFA, Phosphate (7.4)): <18 h
- Avr lag time ([1]; 5 mg/ml, TFA, MilliQ): <18 h
- Visual appearance ([2]; 1 mg/ml, CI, MilliQ (7.9)): Turbid and Hazy

SMILES: CC[C@H](C)[C@H](NC(=O)[C@H](CCCCN)NC(=O)[C@H](CCC(=O)O)NC(=O)[C@H](CCSC)NC(=O)C(C)(C)NC(=O)[C@@H](NC(=O)[C@H](CO)NC(=O)[C@H](Cc1ccc(O)cc1)NC(=O)[C@H](CCC(=O)O)NC(=O)[C@H](CO)NC(=O)[C@@H](NC(=O)[C@H](Cc1ccccc1)NC(=O)[C@@H](NC(=O)CNC(=O)[C@@H](N)CCC(=O)O)[C@@H](C)O)[C@@H](C)CC)[C@@H](C)CC)C(=O)N[C@@H](CCCCNC(=O)CCCCCCCCCCCCCCC(=O)O)C(=O)N[C@@H](CCC(N)=O)C(=O)N[C@@H](CCC(N)=O)C(=O)N[C@@H](CC(=O)O)C(=O)N[C@@H](Cc1ccccc1)C(=O)N[C@H](C(=O)N[C@@H](CCC(=O)O)C(=O)N[C@@H](Cc1c[nH]c2ccccc12)C(=O)N[C@@H](CC(C)C)C(=O)N[C@@H](CC(C)C)C(=O)N[C@@H](C)C(=O)N[C@@H](CCC(N)=O)C(=O)N[C@@H](CCCCN)C(=O)N1CCC[C@H]1C(=O)N[C@@H](CO)C(=O)N[C@@H](CO)C(=O)NCC(=O)N[C@@H](C)C(=O)N1CCC[C@H]1C(=O)N1CCC[C@H]1C(=O)N1CCC[C@H]1C(=O)N[C@@H](CO)C(=O)O)C(C)C [AT616] (H-EGTFISEYSI[Aib]MEKIK(C16 diacid)QQDFVEWLLAQKPSSGAPPPS-OH; N-terminus assumed)
- cAMP antagonism % inhib (human GIP receptor): 100%
- Avr lag time (h) ([1]; 1 mg/ml, Na, MilliQ (7.7)): fnd (Fnd = fibrils not detected within experiment time (96 hours) with agitation.)
- Visual appearance ([2]; 1 mg/ml, Na, MilliQ (7.7)): Clear

SMILES: CC[C@H](C)[C@H](NC(=O)[C@H](CCCCN)NC(=O)[C@H](CC(=O)O)NC(=O)[C@H](CCSC)NC(=O)C(C)(C)NC(=O)[C@@H](NC(=O)[C@H](CO)NC(=O)[C@H](Cc1ccc(O)cc1)NC(=O)[C@H](CC(=O)O)NC(=O)[C@H](CO)NC(=O)[C@@H](NC(=O)[C@H](Cc1ccccc1)NC(=O)[C@@H](NC(=O)CNC(=O)[C@@H](N)CCC(=O)O)[C@@H](C)O)[C@@H](C)CC)[C@@H](C)CC)C(=O)N[C@@H](CCCCNC(=O)CCCCCCCCCCCCCCC(=O)O)C(=O)N[C@@H](CCC(N)=O)C(=O)N[C@@H](CCC(N)=O)C(=O)N[C@@H](CC(=O)O)C(=O)N[C@@H](Cc1ccccc1)C(=O)N[C@H](C(=O)N[C@@H](CCC(=O)O)C(=O)N[C@@H](Cc1c[nH]c2ccccc12)C(=O)N[C@@H](CC(C)C)C(=O)N[C@@H](CC(C)C)C(=O)N[C@@H](C)C(=O)N[C@@H](CCC(N)=O)C(=O)N[C@@H](CCCCN)C(=O)N1CCC[C@H]1C(=O)N[C@@H](CO)C(=O)N[C@@H](CO)C(=O)NCC(=O)N[C@@H](C)C(=O)N1CCC[C@H]1C(=O)N1CCC[C@H]1C(=O)N1CCC[C@H]1C(=O)N[C@@H](CO)C(=O)O)C(C)C [AT665] (H-EGTFISDYSI[Aib]MDKIK(C16 diacid)QQDFVEWLLAQKPSSGAPPPS-OH; N-terminus assumed)
- IC50 (human GIP receptor): 0.15 nM
- cAMP antagonism % inhib (human GIP receptor): 88%
- Avr lag time (h) ([1]; 1 mg/ml, TFA, Phosphate (7.4)): fnd (Fnd = fibrils not detected within experiment time (96 hours) with agitation.)
- Avr lag time (h) ([1]; 5 mg/ml, Na, MilliQ (8)): fnd (Fnd = fibrils not detected within experiment time (96 hours) with agitation.)
- Avr lag time (h) ([1]; 7.5 mg/ml, Na, MilliQ (8)): fnd (Fnd = fibrils not detected within experiment time (96 hours) with agitation.)
- Avr lag time (h) ([1]; 15 mg/ml, Na, MilliQ (8)): fnd (Fnd = fibrils not detected within experiment time (96 hours) with agitation.)
- Visual appearance ([2]; 1 mg/ml, TFA, Phosphate (7.4)): Clear
- Visual appearance ([2]; 7.5 mg/ml, Na, MilliQ (8)): Clear
- Visual appearance ([2]; 15 mg/ml, Na, MilliQ (8)): Clear

SMILES: CC[C@H](C)[C@H](NC(=O)[C@H](CCCCN)NC(=O)[C@H](CC(=O)O)NC(=O)[C@H](CC(C)C)NC(=O)C(C)(C)NC(=O)[C@@H](NC(=O)[C@H](CO)NC(=O)[C@H](Cc1ccc(O)cc1)NC(=O)[C@H](CC(=O)O)NC(=O)[C@H](CO)NC(=O)[C@@H](NC(=O)[C@H](Cc1ccccc1)NC(=O)[C@@H](NC(=O)CNC(=O)[C@@H](N)CCC(=O)O)[C@@H](C)O)[C@@H](C)CC)[C@@H](C)CC)C(=O)N[C@@H](CCCCNC(=O)CCCCCCCCCCCCCCC(=O)O)C(=O)N[C@@H](CCC(N)=O)C(=O)N[C@@H](CCC(N)=O)C(=O)N[C@@H](CC(=O)O)C(=O)N[C@@H](Cc1ccccc1)C(=O)N[C@H](C(=O)N[C@@H](CCC(=O)O)C(=O)N[C@@H](Cc1c[nH]c2ccccc12)C(=O)N[C@@H](CC(C)C)C(=O)N[C@@H](CC(C)C)C(=O)N[C@@H](C)C(=O)N[C@@H](CCC(N)=O)C(=O)N[C@@H](CCCCN)C(=O)N1CCC[C@H]1C(=O)N[C@@H](CO)C(=O)N[C@@H](CO)C(=O)NCC(=O)N[C@@H](C)C(=O)N1CCC[C@H]1C(=O)N1CCC[C@H]1C(=O)N1CCC[C@H]1C(=O)N[C@@H](CO)C(=O)O)C(C)C [AT666] (H-EGTFISDYSI[Aib]LDKIK(C16 diacid)QQDFVEWLLAQKPSSGAPPPS-OH; N-terminus assumed)
- cAMP antagonism % inhib (human GIP receptor): 89%
- Avr lag time (h) ([1]; 1 mg/ml, TFA, Phosphate (7.4)): fnd (Fnd = fibrils not detected within experiment time (96 hours) with agitation.)
- Visual appearance ([2]; 1 mg/ml, TFA, Phosphate (7.4)): Clear
